Experimental data reported in ChEMBL document CHEMBL1201862, “PubChem BioAssay data set” (2004).
The source made the active and inactive calls.

Tests used:
[1] = target: T1, Kappa-type opioid receptor (Homo sapiens, UniProt P41145); assay: kappa opioid receptor activation potency – imaging, image-based, SAR follow-up (AID 2359); format: functional
[2] = target: T2, Mu-type opioid receptor (Homo sapiens, UniProt P35372); assay: mu opioid receptor activators, image-based, SAR follow-up (AID 2352); format: functional
T2 sequence (P35372 whole entry): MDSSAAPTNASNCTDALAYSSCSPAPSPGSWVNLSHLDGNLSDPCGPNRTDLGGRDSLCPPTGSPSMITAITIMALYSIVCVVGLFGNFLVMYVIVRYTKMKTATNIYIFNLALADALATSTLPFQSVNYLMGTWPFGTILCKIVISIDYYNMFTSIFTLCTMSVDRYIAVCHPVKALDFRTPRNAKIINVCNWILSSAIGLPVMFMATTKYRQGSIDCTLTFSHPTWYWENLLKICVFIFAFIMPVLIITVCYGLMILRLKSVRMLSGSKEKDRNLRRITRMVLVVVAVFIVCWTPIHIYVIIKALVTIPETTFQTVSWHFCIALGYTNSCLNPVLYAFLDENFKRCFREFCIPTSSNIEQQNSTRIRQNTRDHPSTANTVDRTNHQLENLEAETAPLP

[3] = target: T2, Mu-type opioid receptor; assay: mu opioid receptor blockers – image-based, SAR follow-up (AID 2420); format: functional;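 also: compounds added before stimulation of receptor with agonist DAMGO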
[4] = target: T3, Delta-type opioid receptor (Homo sapiens, UniProt P41143); assay: SAR Analysis of Agonists of the DOR Receptor using an Image-Based Assay - Set 3. [Related pubchem assays (depositor defined):AID1777, AID1786]; format: functional
T3 sequence (P41143 whole entry): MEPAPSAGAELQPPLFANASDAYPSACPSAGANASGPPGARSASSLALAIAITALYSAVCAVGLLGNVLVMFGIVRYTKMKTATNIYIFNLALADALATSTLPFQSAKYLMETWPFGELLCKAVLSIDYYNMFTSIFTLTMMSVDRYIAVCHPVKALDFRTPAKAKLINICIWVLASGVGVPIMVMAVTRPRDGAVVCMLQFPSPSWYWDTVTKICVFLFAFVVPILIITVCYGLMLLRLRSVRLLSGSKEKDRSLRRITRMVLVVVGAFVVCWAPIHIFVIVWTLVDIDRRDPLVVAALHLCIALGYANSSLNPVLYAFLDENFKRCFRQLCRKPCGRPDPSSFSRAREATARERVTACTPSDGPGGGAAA

[5] = target: T1, Kappa-type opioid receptor; assay: SAR analysis of small molecule agonists of the kappa opioid receptor via a luminescent beta-arrestin assay. [Related pubchem assays (depositor defined):AID1777, AID1786, AID1966, AID2133, AID2136, AID2348, AID2352, AID2357, AID2359, AID2370, AID2420, AID2478, AID2491, AID2492, AID2493, AID2497, AID2498, AID2500, AID449737, AID488822, AID488842]; format: functional
[6] = target: T1, Kappa-type opioid receptor; assay: kappa opioid receptor blockers, image-based, SAR follow-up (AID 2348); format: functional
[7] = target: T1, Kappa-type opioid receptor; assay: kappa opioid receptor activation by imaging – image-based, set 3, SAR follow-up (AID 488833); format: functional
[8] = target: T2, Mu-type opioid receptor; assay: SAR Analysis of Agonists of the MOR Receptor using an Image-Based Assay - Set 3. [Related pubchem assays (depositor defined):AID1777, AID1785, AID1786, AID1966, AID2133, AID2136, AID2284, AID2285, AID2352]; format: functional
[9] = target: T1, Kappa-type opioid receptor; assay: SAR analysis of small molecule agonists of the kappa opioid receptor via a luminescent beta-arrestin assay - Set 3. [Related pubchem assays (depositor defined):AID1777, AID1785, AID1786, AID1966, AID2133, AID2136, AID2284, AID2500]; format: functional
[10] = target: T3, Delta-type opioid receptor; assay: delta opioid receptor blockers – image-based, SAR follow-up (AID 2357); format: functional
[11] = target: T3, Delta-type opioid receptor; assay: DOR agonists, SAR follow-up, image-based (AID 2370); format: functional
[12] = target: T4, Mannose-6-phosphate isomerase (Homo sapiens, UniProt P34949); assay: phosphomannose isomerase inhibition – biochemical, fluorescence intensity, confirmation (AID 1535)
T4 sequence (P34949 whole entry): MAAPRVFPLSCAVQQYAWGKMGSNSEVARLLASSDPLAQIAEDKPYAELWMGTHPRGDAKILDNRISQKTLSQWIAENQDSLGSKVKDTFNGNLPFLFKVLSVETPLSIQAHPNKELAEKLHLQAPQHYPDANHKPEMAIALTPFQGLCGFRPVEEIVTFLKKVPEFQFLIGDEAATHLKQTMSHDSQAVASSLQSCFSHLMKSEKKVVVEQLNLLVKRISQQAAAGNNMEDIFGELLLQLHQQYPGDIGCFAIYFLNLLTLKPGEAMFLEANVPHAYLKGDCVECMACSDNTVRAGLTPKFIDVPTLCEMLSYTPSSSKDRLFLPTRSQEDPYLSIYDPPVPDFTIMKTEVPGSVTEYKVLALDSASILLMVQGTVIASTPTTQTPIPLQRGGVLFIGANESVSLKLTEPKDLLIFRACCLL

[13] = target: Phosphomannomutase 2 (Homo sapiens, UniProt O15305); assay: Counter screen SAR assay for PMM2 inhibitors via a fluorescence intensity assay. [Related pubchem assays (depositor defined):AID1545, AID1574]
[14] = restored growth of temperature-sensitive Burl-1 yeast – whole organism, S. cerevisiae, Burl-1 ts mutant, luminescence, counter-screen for SUMOylation pathway inhibitor project, dose response (AID 463199); format: functional
[15] = target: Trypsin (Sus scrofa, UniProt P00761); assay: trypsin protease activity blockade – biochemical, quenched peptide fluorescence, cherry-pick, selectivity assay for Rce1 protease inhibitor project, dose response (AID 488789)
[16] = target: CAAX prenyl protease 1 (Saccharomyces cerevisiae S288c, UniProt P47154); assay: yeast CAAX protease Ste24 inhibition – biochemical, S. cerevisiae, plate reader, cherry-pick, dose response (AID 488815)
[17] = target: T5, Dual specificity protein phosphatase 3 (Homo sapiens, UniProt P51452); assay: VHR1 phosphatase inhibitors, primary screen, biochemical, absorbance, uHTS (AID 1654)
T5 sequence (P51452 whole entry): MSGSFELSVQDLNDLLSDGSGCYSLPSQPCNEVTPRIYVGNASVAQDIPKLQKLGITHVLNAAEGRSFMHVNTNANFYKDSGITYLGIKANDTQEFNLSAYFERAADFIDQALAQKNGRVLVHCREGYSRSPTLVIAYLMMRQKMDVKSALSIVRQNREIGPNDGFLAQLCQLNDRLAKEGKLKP

[18] = target: Serine/threonine-protein phosphatase PP1-alpha catalytic subunit (Homo sapiens, UniProt P62136); assay: inhibition of protein phosphatase 1 activity – biochemical, fluorescence, dose response (AID 2403);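 also: phosphatase turnover of OMFP into fluorescent 3-O-methylfluorescein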
Serine/threonine-protein phosphatase PP1-alpha catalytic subunit, sequence (P62136 whole entry): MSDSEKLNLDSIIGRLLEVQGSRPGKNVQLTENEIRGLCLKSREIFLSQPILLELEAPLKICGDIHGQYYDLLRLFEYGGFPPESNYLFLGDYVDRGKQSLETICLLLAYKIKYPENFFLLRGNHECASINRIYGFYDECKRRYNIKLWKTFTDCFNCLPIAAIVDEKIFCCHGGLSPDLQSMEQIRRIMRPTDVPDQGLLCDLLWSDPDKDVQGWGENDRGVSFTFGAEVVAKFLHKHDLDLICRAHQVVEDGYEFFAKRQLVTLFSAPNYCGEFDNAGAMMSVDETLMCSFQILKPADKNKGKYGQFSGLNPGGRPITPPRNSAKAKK

[19] = target: T6, Zinc finger protein mex-5 (Caenorhabditis elegans, UniProt Q9XUB2); assay: potency of MEX-5 RNA-binding blockers – biochemical, C. elegans, fluorescence polarization, dose response (AID 1960)
T6 sequence (Q9XUB2 whole entry): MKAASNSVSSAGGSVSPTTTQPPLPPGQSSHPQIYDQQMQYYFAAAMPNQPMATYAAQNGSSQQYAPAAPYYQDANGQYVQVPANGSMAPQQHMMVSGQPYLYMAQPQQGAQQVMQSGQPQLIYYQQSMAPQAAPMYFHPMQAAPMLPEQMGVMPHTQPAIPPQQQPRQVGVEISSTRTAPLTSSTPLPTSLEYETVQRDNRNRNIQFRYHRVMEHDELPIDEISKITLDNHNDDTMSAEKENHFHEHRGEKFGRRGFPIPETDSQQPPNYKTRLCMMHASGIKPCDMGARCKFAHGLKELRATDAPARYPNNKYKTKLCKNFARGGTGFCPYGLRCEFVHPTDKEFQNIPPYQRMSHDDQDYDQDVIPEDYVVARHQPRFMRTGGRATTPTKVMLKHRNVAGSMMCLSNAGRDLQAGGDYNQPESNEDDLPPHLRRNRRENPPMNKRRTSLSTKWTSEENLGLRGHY

[20] = target: T7, Voltage-gated N-type calcium channel alpha-1B subunit/Amyloid beta A4 precursor protein-binding family A member 1 (Homo sapiens, UniProt Q00975+Q02410); format: protein assay
T7 sequence (Q00975 whole entry): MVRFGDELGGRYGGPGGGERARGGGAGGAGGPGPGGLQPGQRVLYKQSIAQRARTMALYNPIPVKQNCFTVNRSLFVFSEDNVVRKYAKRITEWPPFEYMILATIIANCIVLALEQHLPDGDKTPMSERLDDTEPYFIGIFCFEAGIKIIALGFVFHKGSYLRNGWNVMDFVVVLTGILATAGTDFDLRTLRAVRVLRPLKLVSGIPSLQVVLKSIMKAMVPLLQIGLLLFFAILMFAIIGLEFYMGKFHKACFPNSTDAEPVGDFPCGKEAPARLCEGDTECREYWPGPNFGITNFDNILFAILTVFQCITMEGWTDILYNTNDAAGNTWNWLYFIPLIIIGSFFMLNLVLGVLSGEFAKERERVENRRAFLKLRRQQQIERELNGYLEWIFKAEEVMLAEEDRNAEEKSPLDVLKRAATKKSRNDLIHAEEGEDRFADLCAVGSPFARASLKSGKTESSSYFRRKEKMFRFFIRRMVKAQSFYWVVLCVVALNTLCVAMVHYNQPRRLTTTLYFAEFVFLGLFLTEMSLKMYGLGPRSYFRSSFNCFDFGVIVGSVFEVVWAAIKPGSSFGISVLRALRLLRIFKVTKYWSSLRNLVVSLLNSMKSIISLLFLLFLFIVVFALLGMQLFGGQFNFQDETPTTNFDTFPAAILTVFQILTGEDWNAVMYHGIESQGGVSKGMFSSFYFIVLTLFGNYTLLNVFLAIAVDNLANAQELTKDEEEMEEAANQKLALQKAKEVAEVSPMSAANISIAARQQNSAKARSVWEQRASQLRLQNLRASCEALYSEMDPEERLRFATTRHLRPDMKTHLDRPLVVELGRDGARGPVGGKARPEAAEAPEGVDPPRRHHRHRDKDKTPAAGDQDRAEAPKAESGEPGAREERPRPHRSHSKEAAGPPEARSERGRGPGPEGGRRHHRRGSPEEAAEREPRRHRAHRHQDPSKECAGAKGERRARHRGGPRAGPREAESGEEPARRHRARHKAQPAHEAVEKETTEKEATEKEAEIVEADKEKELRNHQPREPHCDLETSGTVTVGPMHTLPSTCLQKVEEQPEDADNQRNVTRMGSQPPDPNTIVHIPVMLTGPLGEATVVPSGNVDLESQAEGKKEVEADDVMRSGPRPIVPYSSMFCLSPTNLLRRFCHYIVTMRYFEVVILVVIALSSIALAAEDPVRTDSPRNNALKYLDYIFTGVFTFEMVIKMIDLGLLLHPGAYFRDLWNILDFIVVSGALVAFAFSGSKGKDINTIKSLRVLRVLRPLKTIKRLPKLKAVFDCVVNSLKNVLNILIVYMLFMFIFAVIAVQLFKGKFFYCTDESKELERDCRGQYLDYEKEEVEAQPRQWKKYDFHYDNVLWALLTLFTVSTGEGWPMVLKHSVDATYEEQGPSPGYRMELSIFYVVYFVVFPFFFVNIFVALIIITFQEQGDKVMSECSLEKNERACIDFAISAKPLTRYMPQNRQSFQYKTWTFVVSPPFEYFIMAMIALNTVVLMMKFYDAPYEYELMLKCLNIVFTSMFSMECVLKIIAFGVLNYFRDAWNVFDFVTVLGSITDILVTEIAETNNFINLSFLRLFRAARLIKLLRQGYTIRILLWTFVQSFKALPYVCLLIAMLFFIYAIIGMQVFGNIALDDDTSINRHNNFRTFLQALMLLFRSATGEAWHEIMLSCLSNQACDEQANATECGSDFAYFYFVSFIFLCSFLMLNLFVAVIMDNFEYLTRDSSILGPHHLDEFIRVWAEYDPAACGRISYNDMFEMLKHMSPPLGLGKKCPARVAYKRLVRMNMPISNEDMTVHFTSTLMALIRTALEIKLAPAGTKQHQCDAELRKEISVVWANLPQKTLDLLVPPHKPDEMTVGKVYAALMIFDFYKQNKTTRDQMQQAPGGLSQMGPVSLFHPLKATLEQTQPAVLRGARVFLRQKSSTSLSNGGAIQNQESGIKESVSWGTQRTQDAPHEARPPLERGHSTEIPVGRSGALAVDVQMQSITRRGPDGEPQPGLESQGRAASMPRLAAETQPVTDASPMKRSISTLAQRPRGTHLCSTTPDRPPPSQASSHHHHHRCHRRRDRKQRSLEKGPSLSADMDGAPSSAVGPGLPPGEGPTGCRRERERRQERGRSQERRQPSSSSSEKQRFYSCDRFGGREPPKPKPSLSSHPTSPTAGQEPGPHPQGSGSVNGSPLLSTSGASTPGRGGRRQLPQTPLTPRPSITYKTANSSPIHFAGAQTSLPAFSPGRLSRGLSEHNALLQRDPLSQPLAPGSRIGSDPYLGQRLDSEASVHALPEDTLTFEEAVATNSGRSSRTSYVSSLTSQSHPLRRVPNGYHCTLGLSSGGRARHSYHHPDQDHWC
T7 sequence (Q02410 whole entry): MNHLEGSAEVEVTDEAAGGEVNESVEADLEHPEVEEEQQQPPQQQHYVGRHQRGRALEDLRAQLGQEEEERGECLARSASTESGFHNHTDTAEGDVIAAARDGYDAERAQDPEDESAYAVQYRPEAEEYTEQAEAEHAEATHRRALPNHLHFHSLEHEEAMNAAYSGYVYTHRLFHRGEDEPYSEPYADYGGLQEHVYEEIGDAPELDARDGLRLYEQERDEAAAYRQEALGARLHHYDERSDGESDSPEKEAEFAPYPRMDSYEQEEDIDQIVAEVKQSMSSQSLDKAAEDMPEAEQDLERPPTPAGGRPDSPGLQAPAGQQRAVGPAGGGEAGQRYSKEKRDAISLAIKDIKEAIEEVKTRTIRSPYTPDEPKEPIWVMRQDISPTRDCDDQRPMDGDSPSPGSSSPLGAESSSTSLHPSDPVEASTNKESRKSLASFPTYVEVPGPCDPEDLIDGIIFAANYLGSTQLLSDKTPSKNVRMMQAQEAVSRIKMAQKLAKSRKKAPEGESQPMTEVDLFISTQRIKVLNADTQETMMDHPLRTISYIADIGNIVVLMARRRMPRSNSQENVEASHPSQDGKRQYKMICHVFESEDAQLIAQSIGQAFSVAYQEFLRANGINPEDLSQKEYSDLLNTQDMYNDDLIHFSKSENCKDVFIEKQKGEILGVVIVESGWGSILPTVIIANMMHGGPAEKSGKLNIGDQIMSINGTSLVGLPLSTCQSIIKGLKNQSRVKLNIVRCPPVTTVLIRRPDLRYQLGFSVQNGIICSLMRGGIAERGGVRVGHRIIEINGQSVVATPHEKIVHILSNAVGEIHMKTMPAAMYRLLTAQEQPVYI

[21] = target: T5, Dual specificity protein phosphatase 3; assay: VHR1 phosphatase inhibitors, biochemical (AID 1878)
[22] = target: T7, Voltage-gated N-type calcium channel alpha-1B subunit/Amyloid beta A4 precursor protein-binding family A member 1; format: protein assay; remark: listed apart in the source
[23] = target: T8, Dual specificity protein phosphatase 6 (Rattus norvegicus, UniProt Q64346); assay: inhibition of rat DUSP6 enzyme activity – biochemical, in vitro, primary screen (AID 425)
T8 sequence (Q64346 whole entry): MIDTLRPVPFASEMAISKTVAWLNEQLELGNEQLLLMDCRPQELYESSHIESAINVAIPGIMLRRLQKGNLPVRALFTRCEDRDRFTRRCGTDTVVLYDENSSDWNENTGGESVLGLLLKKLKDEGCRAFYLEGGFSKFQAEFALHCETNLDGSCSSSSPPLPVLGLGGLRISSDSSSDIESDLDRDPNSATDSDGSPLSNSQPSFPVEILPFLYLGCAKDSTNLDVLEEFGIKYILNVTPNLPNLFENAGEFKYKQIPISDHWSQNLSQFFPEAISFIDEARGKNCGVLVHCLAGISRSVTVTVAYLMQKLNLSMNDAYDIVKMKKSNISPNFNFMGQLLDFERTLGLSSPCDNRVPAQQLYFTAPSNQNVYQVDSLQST

[24] = target: T9, Serine/threonine-protein phosphatase (Homo sapiens, UniProt Q9BPW0); assay: Counterscreen for inhibitors of PP1: fluorescence-based biochemical high throughput dose response assay to identify inhibitors of Protein Phosphatase 5 (PP5). [Related pubchem assays: 2034 (Summary (PP5 inhibitors)), 1987 (PP5 inhibitors in singlate), 2235 (PP1 inhibitors in singlate)]
T9 sequence (Q9BPW0 whole entry): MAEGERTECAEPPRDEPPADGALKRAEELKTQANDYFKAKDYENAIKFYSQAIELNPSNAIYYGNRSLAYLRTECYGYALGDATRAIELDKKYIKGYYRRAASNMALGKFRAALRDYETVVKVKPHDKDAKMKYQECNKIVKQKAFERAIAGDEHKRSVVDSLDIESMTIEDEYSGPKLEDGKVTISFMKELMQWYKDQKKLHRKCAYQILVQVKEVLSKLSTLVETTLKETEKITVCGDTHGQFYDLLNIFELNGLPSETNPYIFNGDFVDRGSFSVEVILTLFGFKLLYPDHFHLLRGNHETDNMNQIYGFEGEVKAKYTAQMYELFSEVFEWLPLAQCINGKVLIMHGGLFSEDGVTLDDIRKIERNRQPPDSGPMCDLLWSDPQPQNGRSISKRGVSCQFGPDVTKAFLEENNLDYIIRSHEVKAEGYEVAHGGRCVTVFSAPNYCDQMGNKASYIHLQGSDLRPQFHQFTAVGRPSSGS

[25] = target: Apelin receptor (Homo sapiens, UniProt P35414); assay: apelin receptor antagonists, arrestin read-out – cell-based, luminescent, enzyme-fragment complementation, selectivity assay for CCR6 antagonist project, SAR follow-up (AID 588359); format: functional

T1 sequence (P41145 whole entry): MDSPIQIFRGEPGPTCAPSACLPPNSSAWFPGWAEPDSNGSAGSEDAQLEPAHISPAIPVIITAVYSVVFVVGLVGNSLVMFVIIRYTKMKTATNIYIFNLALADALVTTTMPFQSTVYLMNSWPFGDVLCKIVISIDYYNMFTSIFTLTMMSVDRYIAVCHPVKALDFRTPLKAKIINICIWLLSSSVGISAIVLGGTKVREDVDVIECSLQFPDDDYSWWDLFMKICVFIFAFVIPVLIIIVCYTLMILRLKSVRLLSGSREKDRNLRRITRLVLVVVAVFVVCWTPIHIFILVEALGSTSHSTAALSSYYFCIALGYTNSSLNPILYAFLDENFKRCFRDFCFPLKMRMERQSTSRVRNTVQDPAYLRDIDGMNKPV

Compound: Clc1ccccc1CSc1nnc(-c2ccccn2)n1Cc1ccco1
- EC50 [1]: 10.4 µM (active)
- EC50 [2]: > 32 µM (inactive)
- IC50 [3]: > 32 µM (inactive)
- EC50 [4]: > 64 µM (inactive)
- EC50 [5]: > 10 µM (inactive)
- IC50 [6]: > 32 µM (inactive)
- EC50 [7]: 11.6 µM (inactive)
- EC50 [8]: > 32 µM (inactive)
- EC50 [9]: 9.07 µM (active)
- IC50 [10]: > 32 µM (inactive)
- EC50 [11]: > 32 µM (inactive)

Compound: O=C1c2ccccc2SC1c1ccccc1 (stereo not given)
- IC50 [12]: > 100 µM (inactive)
- IC50 [13]: > 100 µM (inactive)

Compound: S=C(NCCc1c[nH]c2ccccc12)NC1CC1
- AC50 [14]: 51 µM (active)

Compound: COc1cccc(C2CC3=Nc4ccccc4N(C(=O)CCC(=O)O)C(c4ccc(F)cc4)C3=C(O)C2)c1 (stereo not given)
- AC50 [15]: 12 µM (active)
- AC50 [16]: 21.6 µM (active)

Compound: O=C1NC(=S)N(c2ccc(F)cc2)C(=O)/C1=C/c1ccco1
- IC50 [17]: < 1.23 µM (inactive)
- IC50 [18]: 8.21 µM (active)
- EC50 [19]: 11.1 µM (active)
- IC50 [20]: 3.33 µM (active)
- IC50 [21]: < 1.23 µM (inactive)
- IC50 [22]: 4.45 µM (active)
- IC50 [23]: 1.36 µM (active)
- IC50 [24]: > 67 µM (not active)

Compound: C/C(=N\Nc1ccc2ccccc2n1)c1ccccc1O
- IC50 [25]: 4.12 µM (active)
